Test results as given in patent US4086417A, “Cytidine nucleotide derivatives” (Asahi Kasei Kogyo Kabushiki Kaisha, priority 1974, dated 1978).
Converted amounts (≈) assume the structure as drawn. Read-outs that look alike come from different tables or passages of the source.

Experiments:
leukemia L-1210 [1] = conditions: background; cited from earlier work
leukemia L-1210 [2] = experiment: Antitumour activity in mice inoculated intraperitoneally with leukemia L-1210 (survival, T/C); assay type: in vivo, CDF-1 male mice; conditions: Mus musculus, L1210, ip, directly after injection of L-1210, after 2 days and after 6 days; for response vs control in vivo at 100 mg/kg: 100 mg/kg i.p.; for response vs control in vivo at 200 mg/kg: 200 mg/kg i.p.; for response vs control in vivo at 400 mg/kg: 400 mg/kg i.p.
Method: The antitumour activity for mice of the test material was evaluated by means of survival rate comparison, T/C (%), that is, 100 times the mean survival period of the groups injected with the test material divided by the mean survival period of the comparison groups which were not injected with the test material.
Further, for comparison, the following materials were also subjected to the same biological test: […]

[3] = Solubility test: solubility in water; assay type: physicochemical
From the text: In the aforesaid examples, the products were obtained as white solids.
In Table 1, -Ara-C means "-1-β-D-arabinofuranosylcytosine" and -5'-Pna and -5'-PNa2 mean "-1-β-D-arabinofuranosylcytosine-5'-phosphate monosodium salt" and "-1-β-D-arabinofuranosylcytosine-5'-phosphate disodium salt," respectively.

[4] = cited from earlier work
deoxycytidine deaminase = conditions: background; cited from earlier work

Structure (SMILES)	Antileukemial activity (in words) (leukemia L-1210 [1])	response vs control in vivo at 100 mg/kg (leukemia L-1210 [2])	response vs control in vivo at 200 mg/kg (leukemia L-1210 [2])	response vs control in vivo at 400 mg/kg (leukemia L-1210 [2])	Solubility in water [3]	solubility [3]	Biological half life / excretion (in words) ([4]; background)	Deamination / resistance to deaminase (in words) (deoxycytidine deaminase)	Biological half life / excretion (in words) ([4]; in vivo)
O=c1ccn([C@@H]2O[C@H](CO)[C@@H](O)[C@@H]2O)c(=O)[nH]1 [uracil arabinoside]	possesses no antileukemial activity								
CCCCCCCCCCCCCCCC(=O)Nc1ccn([C@@H]2O[C@H](COP(=O)(O)O)[C@@H](O)[C@@H]2O)c(=O)n1 [N^4 -Palmitoyl-5'-PNa, N^4-palmitoyl-1-β-D-arabinofuranosylcytosine-5'-phosphate monosodium]		> 349%	> 342%	98%	> 30000 µg/mL				
CCCCCCCCCCCCCCCCC(=O)Nc1ccn([C@@H]2O[C@H](CO)[C@@H](O)[C@@H]2O)c(=O)n1 [N^4 -Margaroyl-Ara-C]		> 397%	188%	99%		< 10 µg/mL			
Nc1ccn([C@@H]2O[C@H](CO)[C@@H](O)[C@@H]2O)c(=O)n1 [Ara-C, 1-β-D-arabinofuranosylcytosine]	one of the most effective known antileukemial agents	127%	136%	164%			the biological half life of the medicament is short	readily converted into uracil arabinoside	
CCCCCCCCCCCCCCCC(=O)Nc1ccn([C@@H]2O[C@H](CO)[C@@H](O)[C@@H]2O)c(=O)n1 [N^4 -Palmitoyl-Ara-C, N^4-palmitoyl-1-β-D-arabinofuranosylcytosine]		> 346%	83%	78%		10 µg/mL (≈ 20.8 µM)			
CCCCCCCCCCCCCCCCCC(=O)Nc1ccn([C@@H]2O[C@H](CO)[C@@H](O)[C@@H]2O)c(=O)n1 [N^4 -Stearoyl-Ara-C, N^4-stearoyl-1-β-D-arabinofuranosylcytosine]		> 274%	123%	111%		< 10 µg/mL			
N=c1ccn2c(n1)O[C@H]1[C@H](O)[C@@H](CO)O[C@H]12 [2,2'-ANHYDROCYTOSINE ARABINOSIDE, 2,2'-anhydrocytosine arabinoside]	does not have antileukemial activity							SHOWS HIGH RESISTANCE TO THE DEAMINOSE	the biological half life of this derivative is as short as that of cytosine arabinoside
CCCCCCCC/C=C\CCCCCCCC(=O)Nc1ccn([C@@H]2O[C@H](COP(=O)(O)O)[C@@H](O)[C@@H]2O)c(=O)n1 [N^4 -Oleoyl-5'-PNa, N^4-oleoyl-1-β-D-arabinofuranosylcytosine-5'-phosphate monosodium]		270%	156%	103%	> 50000 µg/mL				
